From ChEMBL document CHEMBL4387714, “Four N-(E)-cinnamoyl (cinnamamide) derivatives of aminoalkanols with promising anticonvulsant and analgesic activity” (Bioorg Med Chem Lett, 2019) come the findings set out here.

The source made the active and inactive calls. The rule behind the calls is not given here.

The nature of data set [1]: Toxicity in albino CF1 mouse assessed as body weight at 180 mg/kg, ip measured at 0.5 hrs (reference value: 29.3 +/- 0.3 g). To be noted: in vivo. It is filed as organism-based.
For data set [2], the system named is Mus musculus. The experiment in a line: Anticonvulsant activity in albino CF1 mouse model of metrazol-induced seizures assessed as metrazol dose causing first twitch at 180 mg/kg, ip administered 0.5 hrs prior to MTZ challenge (reference value: 25.6 +/- 0.9 mg/kg). It is filed as functional.
In data set [3] the test system is Mus musculus. The experiment in a line: Anticonvulsant activity in 60-Hz corneal stimulation-induced full kindling albino CF1 mouse model of epilepsy assessed as reduction in seizure score at 42 mg/kg, ip administered 0.25 hrs prior to 60-Hz corneal stimulation. It is filed as functional, organism-based.
For data set [4], the system named is Mus musculus. Kind of data set: Anticonvulsant activity in 60-Hz corneal stimulation-induced full kindling albino CF1 mouse model of epilepsy assessed as reduction in seizure score at 25 mg/kg, ip administered 0.25 hrs prior to 60-Hz corneal stimulation. It is filed as functional, organism-based.
Data set [5] concerns Mus musculus. The experiment in a line: Anticonvulsant activity in albino CF1 mouse model of metrazol-induced seizures assessed as time to twitch at 180 mg/kg, ip administered 0.5 hrs prior to MTZ challenge (reference value: 26.5 +/- 1.0 s). It is filed as functional.
In data set [6] the test system is Mus musculus. Kind of data set: Anticonvulsant activity in 60-Hz corneal stimulation-induced full kindling albino CF1 mouse model of epilepsy assessed as reduction in seizure score at 70 mg/kg, ip administered 0.25 hrs prior to 60-Hz corneal stimulation. It is filed as functional, organism-based.
Data set [7] has as its system Mus musculus. The experiment in a line: Anticonvulsant activity in albino CF1 mouse assessed as time to clonus at 56 mg/kg, ip administered 0.5 hrs prior to MTZ challenge (reference value: 29.3 +/- 1.2 s). It is filed as functional.
Data set [8] concerns Mus musculus. Kind of data set: Anticonvulsant activity in ip dosed 60-Hz corneal stimulation-induced full kindling albino CF1 mouse model of epilepsy assessed as reduction in seizure score treated 0.25 hrs prior to 60-Hz corneal stimulation. It is filed as functional.
The subject of data set [9] is Mus musculus. The experiment in a line: Anticonvulsant activity in albino CF1 mouse model of metrazol-induced seizures assessed as metrazol dose causing first twitch at 56 mg/kg, ip administered 0.5 hrs prior to MTZ challenge (reference value: 25.6 +/- 0.9 mg/kg). It is filed as functional.
Data set [10] relates to Mus musculus. Kind of data set: Anticonvulsant activity in 60-Hz corneal stimulation-induced full kindling albino CF1 mouse model of epilepsy assessed as reduction in seizure score at 15 mg/kg, ip administered 0.25 hrs prior to 60-Hz corneal stimulation. It is filed as functional, organism-based.
The test system of data set [11] is Mus musculus. Kind of data set: Anticonvulsant activity in albino CF1 mouse model of metrazol-induced seizures assessed as time to twitch at 56 mg/kg, ip administered 0.5 hrs prior to MTZ challenge (reference value: 26.5 +/- 1.0 s). It is filed as functional.
Data set [12] concerns Mus musculus. Kind of data set: Anticonvulsant activity in albino CF1 mouse assessed as metrazol dose causing first clonus at 180 mg/kg, ip administered 0.5 hrs prior to MTZ challenge (reference value: 28.4 +/- 1.1 mg/kg). It is filed as functional.
The nature of data set [13]: Toxicity in albino CF1 mouse assessed as body weight at 56 mg/kg, ip measured at 0.5 hrs (reference value: 29.3 +/- 0.3 g). It is filed as organism-based. To be noted: in vivo.
For data set [14], the system named is Mus musculus. The experiment in a line: Anticonvulsant activity in albino CF1 mouse assessed as time to clonus at 180 mg/kg, ip administered 0.5 hrs prior to MTZ challenge (reference value: 29.3 +/- 1.2 s). It is filed as functional.
In data set [15] the test system is Mus musculus. Kind of data set: Anticonvulsant activity in albino CF1 mouse assessed as metrazol dose causing first clonus at 56 mg/kg, ip administered 0.5 hrs prior to MTZ challenge (reference value: 28.4 +/- 1.1 mg/kg). It is filed as functional.
Data set [16] deals with Mus musculus. The experiment in a line: Analgesic activity in formalin-induced albino CF1 mouse model of hyperalgesia assessed as time spent in paw licking during inflammatory phase at 186 mg/kg, ip administered 0.25 hrs prior to formalin challenge measured first 2 mins of five minutes test for 10 mins by formalin test relative to control. It is filed as functional.
In data set [17] the test system is Mus musculus. The experiment in a line: Analgesic activity in formalin-induced albino CF1 mouse model of hyperalgesia assessed as time spent in paw licking during acute phase at 186 mg/kg, ip administered 0.25 hrs prior to formalin challenge measured first 2 mins of five minutes test for 10 mins by formalin test relative to control. It is filed as functional.

With `CC(O)CNC(=O)/C=C/c1ccc(Cl)cc1` (racemic), the Activity turned out to be 28.6 g in [1]; 60.3 mg/kg in the data set on Mus musculus [2]; 45 mg/kg in the data set on Mus musculus [9]; 105.4 mg/kg in the data set with Mus musculus [12]; 28.4 g in data set [13]; 65.4 mg/kg in the data set with Mus musculus [15]. The result with Mus musculus [3], with Mus musculus [4] and in the data set on Mus musculus [10] was inactive. The Time with Mus musculus [5] is 60.8 s; in the data set on Mus musculus [7], 65.6 s; in the data set with Mus musculus [11], 45.1 s; in the data set with Mus musculus [14], 106.1 s. Also, in the data set on Mus musculus [6], the outcome was Active. Moreover, the ED50 in the data set with Mus musculus [8] amounted to 51.1 mg/kg.
For `O=C(/C=C/c1ccc(Cl)cc1)N[C@H]1CC[C@H](O)CC1`, the values for the Activity in the data set on Mus musculus [16] and in the data set with Mus musculus [17] were 0% and 21.89%, respectively.
